Laboratory results reported in patent US20240300991A1, “NUCLEOSIDE DERIVATIVE HAVING MULTI-TARGET KINASE INHIBITORY ACTIVITY AND PHARMACEUTICAL COMPOSITION FOR PREVENTING AND TREATING CANCER COMPRISING SAME” (FUTURE MEDICINE CO., LTD., priority 2021, published 2024).

How the values were obtained:
DYRK1B = molecular target: T1, DYRK1B (Homo sapiens, UniProt Q9Y463); assay: Kinase inhibition test (DNA-tagged kinase, affinity resin, qPCR readout); assay type: binding; set-up: key: (−) indicates no effect; (+) indicates weak inhibitory activity; (++) indicates a moderate level of inhibitory activity; (+++) indicates strong inhibitory activity; conditions: 1 μM of compound
T1 construct: made in house
T1 sequence (Q9Y463 whole entry): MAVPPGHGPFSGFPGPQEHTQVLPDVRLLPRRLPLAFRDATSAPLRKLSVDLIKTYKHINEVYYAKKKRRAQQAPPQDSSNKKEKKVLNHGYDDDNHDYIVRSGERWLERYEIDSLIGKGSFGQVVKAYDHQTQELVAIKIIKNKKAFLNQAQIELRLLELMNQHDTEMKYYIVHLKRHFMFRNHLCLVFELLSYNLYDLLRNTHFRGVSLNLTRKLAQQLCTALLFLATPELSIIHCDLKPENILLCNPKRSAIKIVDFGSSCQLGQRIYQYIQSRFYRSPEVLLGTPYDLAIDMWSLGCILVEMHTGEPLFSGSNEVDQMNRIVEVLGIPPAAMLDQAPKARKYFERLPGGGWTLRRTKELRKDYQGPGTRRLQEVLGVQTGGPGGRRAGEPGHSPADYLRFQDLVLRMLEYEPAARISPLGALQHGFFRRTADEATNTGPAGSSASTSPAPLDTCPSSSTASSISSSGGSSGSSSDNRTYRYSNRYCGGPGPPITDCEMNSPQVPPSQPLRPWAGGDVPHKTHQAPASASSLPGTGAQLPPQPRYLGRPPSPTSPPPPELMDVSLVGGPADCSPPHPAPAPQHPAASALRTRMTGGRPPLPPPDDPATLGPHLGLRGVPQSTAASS
Description: (§1) In order to examine the inhibitory activity of the nucleoside derivatives of the present invention synthesized in the Preparation Examples against kinases, the nucleoside derivatives were confirmed to have inhibitory activity against neurotrophic tyrosine kinase receptor type 1 or tropomyosin receptor kinase A (NTRK1), casein kinase 1 isoform delta (CSNK1D), dual specificity tyrosine-phosphorylation-regulated kinase 1A (DYRK1A), dual specificity tyrosine-phosphorylation-regulated kinase 1B (DYRK1B) and receptor-type tyrosine-protein kinase or fms like tyrosine kinase 3 or cluster of differentiation antigen 135 (CD135) or fetal liver kinase-2 (Flk2) (FLT3).
(§2) The inhibition measurement method is as follows. Most of the kinases were produced by culturing a phage in which BL21 E. coli was tagged with a kinase at 32° C. until lysis, followed by centrifugation and filtration. Further, the kinases were produced using HEK-293 cells. Thereafter, the kinases were DNA tagged for qPCR. After an affinity resin was prepared by stirring a biotin-tagged substrate onto streptavidin-coated beads for 30 minutes, a non-specifically bound substrate was washed with a buffer (SeaBlock (Pierce), 1% BSA, 0.05% Tween 20, 1 mM DTT).
(§3) For a kinase test, the kinase, the substrate, the affinity resin, and a test material dissolved in dimethyl sulfoxide were stirred together in a buffer (20% SeaBlock, 0.17×PBS, 0.05% Tween20, and 6 mM DTT) at room temperature for 1 hour. Thereafter, an affinity substrate was washed with a buffer (1×PBS, 0.05% Tween20), and then suspended in an elution buffer (1×PBS, 0.05% Tween20, 0.5 μM non-biotinylated affinity ligand), and the resulting suspension was stirred. The concentration of the kinase was quantified by qPCR.

NTRK1 = molecular target: T2, NTRK1 (Homo sapiens, UniProt P04629); assay: as above; assay type: binding; set-up: key: (−) indicates no effect; (+) indicates weak inhibitory activity; (++) indicates a moderate level of inhibitory activity; (+++) indicates strong inhibitory activity; conditions: 1 μM of compound
T2 construct: made in house
T2 sequence (P04629 33-796): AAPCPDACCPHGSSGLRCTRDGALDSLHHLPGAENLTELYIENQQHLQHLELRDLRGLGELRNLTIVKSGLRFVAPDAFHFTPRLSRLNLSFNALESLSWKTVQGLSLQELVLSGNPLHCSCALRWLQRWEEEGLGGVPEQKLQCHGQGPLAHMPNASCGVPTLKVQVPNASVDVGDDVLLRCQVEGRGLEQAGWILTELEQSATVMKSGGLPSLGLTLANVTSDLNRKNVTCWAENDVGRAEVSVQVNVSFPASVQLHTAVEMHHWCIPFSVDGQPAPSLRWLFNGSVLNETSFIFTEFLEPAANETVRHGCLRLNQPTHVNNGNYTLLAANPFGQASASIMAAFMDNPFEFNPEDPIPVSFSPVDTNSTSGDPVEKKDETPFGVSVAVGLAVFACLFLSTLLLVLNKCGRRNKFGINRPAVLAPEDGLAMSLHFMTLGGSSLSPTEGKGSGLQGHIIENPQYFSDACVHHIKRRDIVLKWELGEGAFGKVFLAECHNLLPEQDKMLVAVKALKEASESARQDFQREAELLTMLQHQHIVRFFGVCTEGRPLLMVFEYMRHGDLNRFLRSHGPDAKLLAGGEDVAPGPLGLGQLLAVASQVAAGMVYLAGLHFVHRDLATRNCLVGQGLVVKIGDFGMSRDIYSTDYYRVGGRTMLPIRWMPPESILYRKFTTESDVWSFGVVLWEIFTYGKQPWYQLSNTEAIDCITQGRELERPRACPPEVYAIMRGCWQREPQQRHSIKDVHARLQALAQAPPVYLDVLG
Description: as §1, §2, §3

CSNK1D = molecular target: T3, CSNK1D (Homo sapiens, UniProt P48730); assay: as above; assay type: binding; set-up: key: (−) indicates no effect; (+) indicates weak inhibitory activity; (++) indicates a moderate level of inhibitory activity; (+++) indicates strong inhibitory activity; conditions: 1 μM of compound
T3 construct: made in house
T3 sequence (P48730 whole entry): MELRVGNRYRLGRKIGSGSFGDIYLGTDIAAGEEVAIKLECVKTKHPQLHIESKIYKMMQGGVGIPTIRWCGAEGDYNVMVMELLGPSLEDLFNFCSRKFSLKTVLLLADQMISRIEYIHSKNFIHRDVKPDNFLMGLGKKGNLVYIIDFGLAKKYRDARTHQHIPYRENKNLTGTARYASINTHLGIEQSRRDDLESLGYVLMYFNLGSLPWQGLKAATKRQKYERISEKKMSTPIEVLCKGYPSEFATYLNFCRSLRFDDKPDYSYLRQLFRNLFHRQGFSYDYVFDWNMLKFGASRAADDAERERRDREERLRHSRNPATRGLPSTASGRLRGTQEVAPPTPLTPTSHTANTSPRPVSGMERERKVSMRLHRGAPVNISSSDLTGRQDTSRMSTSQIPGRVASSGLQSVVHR
Description: as §1, §2, §3

DYRK1A = molecular target: T4, DYRK1A (Homo sapiens, UniProt Q13627); assay: as above; assay type: binding; set-up: key: (−) indicates no effect; (+) indicates weak inhibitory activity; (++) indicates a moderate level of inhibitory activity; (+++) indicates strong inhibitory activity; conditions: 1 μM of compound
T4 construct: made in house
Description: as §1, §2, §3

[1] = system: SK-Hep-1 (liver cancer cells); assay: Inhibitory activity against cancer cells (sulforhodamine B staining); assay type: cell-based; conditions: 3 days, SRB staining
Procedure: (§4) In order to examine the anticancer activity of the nucleoside derivatives of the present invention synthesized in the Preparation Examples, the ICso of each of A549 (lung cancer cells), HCT116 (colon cancer cells), MDA-MB-231 (breast cancer cells), SK-Hep-1 (liver cancer cells), SNU638 (stomach cancer cells) and PC-3 (prostate cancer cells) against cancer cells was measured.
(§5) The test method is as follows. Cells were allowed to stand for 1 day and set as a control on day 0. Further, after a test material was added to the cells, the cells were allowed to stand for 3 days. Thereafter, the cells were stained with 1% acetic acid and 0.4% sulforhodamine B. The stained cells were dried and dissolved in 10 mM Tris (pH 10.0). Absorbance was measured at 515 nm, and the degree of cell division was determined using the following equation. After calculation as Cell division (%)=(average absorbancetest material−average absorbanceday 0)/(average absorbance control-average absorbanceday 0)×100, the degree of cell division was calculated through a non-linear regression analysis using Table Curve 2D v5.01 (Systat Software Inc., San Jose, CA, USA).

[2] = system: MDA-MB-231 (breast cancer cells); assay: as above; assay type: cell-based; conditions: 3 days, SRB staining
Procedure: as §4, §5

A549 (lung cancer cells) = assay: as above; assay type: cell-based; conditions: 3 days, SRB staining
Procedure: as §4, §5

[3] = system: SNU638 (stomach cancer cells); assay: as above; assay type: cell-based; conditions: 3 days, SRB staining
Procedure: as §4, §5

[4] = system: HCT116 (colon cancer cells); assay: as above; assay type: cell-based; conditions: 3 days, SRB staining
Procedure: as §4, §5

[5] = system: PC-3 (prostate cancer cells); assay: as above; assay type: cell-based; conditions: 3 days, SRB staining
Procedure: as §4, §5

Compound | DYRK1B inhibitory activity (DYRK1B) | NTRK1 inhibitory activity (NTRK1) | CSNK1D inhibitory activity (CSNK1D) | DYRK1A inhibitory activity (DYRK1A) | IC50 [1] [nM] | IC50 [2] [nM] | IC50 (A549 (lung cancer cells)) [nM] | IC50 [3] [nM] | IC50 [4] [nM] | IC50 [5] [nM] | IC50 ([5]; 72 h) [nM] | IC50 ([1]; Homo sapiens, SK-HEP1, 72 h) [nM] | IC50 ([2]; Homo sapiens, 72 h) [nM] | IC50 (A549 (lung cancer cells); Homo sapiens, 72 h) [nM] | IC50 ([3]; Homo sapiens, SNU-638, 72 h) [nM] | IC50 ([4]; Homo sapiens, HCT-116, 72 h) [nM]
Nc1ncnc2c1c(-c1ccccc1)cn2[C@@H]1S[C@H](CO)[C@@H](O)[C@H]1O [Compound 2b] | ++ | ++ | +++ | ++ | 7810 | 8830 | 7570 | 6320 | 6350 | 9210 |  |  |  |  |  | 
[N-]=[N+]=NC[C@H]1S[C@@H](n2cc(C(N)=O)c3c(N)ncnc32)[C@H](O)[C@@H]1O [Compound 9c] | +++ | +++ | +++ | +++ | 780 | 260 | 240 | 350 | 860 | 360 |  |  |  |  |  | 
N#Cc1cn([C@@H]2S[C@H](CN)[C@@H](O)[C@H]2O)c2ncnc(N)c12 [Compound 10b] | +++ | ++ | ++ | +++ | 1630 | 4750 | 3830 | 1470 | 2780 | 2450 |  |  |  |  |  | 
CC(C)(C)C#Cc1cn([C@@H]2S[C@H](CO)[C@@H](O)[C@H]2O)c2ncnc(N)c12 [Compound 4c] | − | + | + | − | > 50000 | 29600 | > 50000 | > 50000 | > 50000 | > 50000 |  |  |  |  |  | 
C#Cc1cn([C@@H]2S[C@H](COC(=O)c3ccncc3)[C@@H](O)[C@H]2O)c2ncnc(N)c12 [Compound 7f] | ++ | +++ | ++ | ++ | 50 | 74 | 70 | 48 | 38 | 78 |  |  |  |  |  | 
CCC#Cc1cn([C@@H]2S[C@H](CO)[C@@H](O)[C@H]2O)c2ncnc(N)c12 [Compound 4b] | + | + | + | + | > 50000 | > 50000 | > 50000 | > 50000 | > 50000 | > 50000 |  |  |  |  |  | 
C#Cc1cn([C@@H]2S[C@H](COC(=O)c3ccc(OC)cc3)[C@@H](O)[C@H]2O)c2ncnc(N)c12 [Compound 7d] | ++ | ++ | ++ | ++ | 250 | 360 | 350 | 190 | 300 | 330 |  |  |  |  |  | 
NC(=O)c1cn([C@@H]2S[C@H](COC(=O)c3ccccc3)[C@@H](O)[C@H]2O)c2ncnc(N)c12 [Compound 7h] | +++ | ++ | +++ | +++ | 5090 | 6790 | 4780 | 5230 | 1610 | 3560 |  |  |  |  |  | 
Nc1ncnc2c1c(-c1cccs1)cn2[C@@H]1S[C@H](CO)[C@@H](O)[C@H]1O [Compound 1b, (2R,3R,4S,5R)-2-(4-amino-5-(thiophen-2-yl)-7H-pyrrolo[2,3-d]pyrimidin-7-yl)-5-(hydroxymethyl)tetrahydrothiophene-3,4-diol] | ++ | +++ | +++ | ++ |  |  |  |  |  |  | 2480 |  |  |  |  | 
Nc1ncnc2c1c(-c1ccco1)cn2[C@@H]1S[C@H](CO)[C@@H](O)[C@H]1O [Compound 1a, (2R,3R,4S,5R)-2-(4-amino-5-(furan-2-yl)-7H-pyrrolo[2,3-d]pyrimidin-7-yl)-5-(hydroxymethyl)tetrahydrothiophene-3,4-diol] | +++ | +++ | ++ | +++ |  |  |  |  |  |  | 2460 |  |  |  |  | 

Results, then the compound that gave them:

DYRK1B inhibitory activity (DYRK1B) | NTRK1 inhibitory activity (NTRK1) | CSNK1D inhibitory activity (CSNK1D) | DYRK1A inhibitory activity (DYRK1A) | IC50 [1] [nM] | IC50 [2] [nM] | IC50 (A549 (lung cancer cells)) [nM] | IC50 [3] [nM] | IC50 [4] [nM] | IC50 [5] [nM] | IC50 ([5]; 72 h) [nM] | IC50 ([1]; Homo sapiens, SK-HEP1, 72 h) [nM] | IC50 ([2]; Homo sapiens, 72 h) [nM] | IC50 (A549 (lung cancer cells); Homo sapiens, 72 h) [nM] | IC50 ([3]; Homo sapiens, SNU-638, 72 h) [nM] | IC50 ([4]; Homo sapiens, HCT-116, 72 h) [nM] | Compound
++ | ++ | ++ | ++ | 5110 | 5330 | 4330 | 3540 | 2840 | 5340 |  |  |  |  |  |  | C=Cc1cn([C@@H]2SC[C@@H](O)[C@H]2O)c2ncnc(N)c12 [Compound 13e]
++ | ++ | ++ | ++ | 1270 | 1150 | 590 | 1200 | 850 | 1390 |  |  |  |  |  |  | C#Cc1cn([C@@H]2SC[C@@H](O)[C@H]2O)c2ncnc(N)c12 [Compound 13a]
++ | ++ | ++ | ++ | 1760 | 2430 | 2510 | 2560 | 1370 | 2740 |  |  |  |  |  |  | NC[C@H]1S[C@@H](n2cc(C(N)=O)c3c(N)ncnc32)[C@H](O)[C@@H]1O [Compound 10c]
+++ | +++ | +++ | ++ | 2130 | 5670 | 5270 | 8460 | 9730 | 2240 |  |  |  |  |  |  | NC(=O)c1cn([C@@H]2SC[C@@H](O)[C@H]2O)c2ncnc(N)c12 [Compound 13g]
 |  |  |  |  |  |  |  |  |  | 13200 | 10200 | 11200 | 11700 | 9700 | 9720 | C#Cc1cn([C@@H]2S[C@H](CN3CCOCC3)[C@@H](O)[C@H]2O)c2ncnc(N)c12 [Compound 12a, (2R,3R,4S,5R)-2-(4-amino-5-ethynyl-7H-pyrrolo[2,3-d]pyrimidin-7-yl)-5-(morpholinomethyl)tetrahydrothiophene-3,4-diol]
+++ | +++ | +++ | +++ |  |  |  |  |  |  |  | 310 | 500 | 250 | 620 | 730 | C#Cc1cn([C@@H]2SC(=C)[C@@H](O)[C@H]2O)c2ncnc(N)c12 [Compound 12b, (2R,3R,4S)-2-(4-amino-5-ethynyl-7H-pyrrolo[2,3-d]pyrimidin-7-yl)-5-methylenetetrahydrothiophene-3,4-diol]
